Results on 16 molecules are retold here after ChEMBL document CHEMBL1131779, “Synthesis and evaluation of potential complement inhibitory semisynthetic analogs of oleanolic acid” (Bioorg Med Chem Lett, 1999).

Broadly, the IC50 is the point on the concentration scale where inhibition reaches its midpoint.

The species entered for assay [1] is Homo sapiens. Put plainly: The compound was tested in vitro for its inhibition of the classical pathway activation of human complement. It counts as functional.
The subject of assay [2] is SK-MEL. The experiment in a line: Compound was tested for its cytotoxicity against human malignant melanoma cell line SK-MEL. It counts as functional, cell-based.
Assay [3] in a line: In vitro therapeutic index was determined. (Therapeutic index = IC50 cytotoxicity/IC50 complement inhibition). It counts as functional.
The species entered for assay [4] is Homo sapiens. Put plainly: The compound was tested in vitro for its inhibition of the classical pathway activation of human complement; Not active. Format: functional.
Assay [5] has as its system SK-MEL. The experiment in a line: Compound was tested for its cytotoxicity against human malignant melanoma cell line SK-MEL; NA = Not active. Format: functional, cell-based.
Assay [6] is described as follows: The compound was tested for its apoptotic activity; No DNA migration observed. It counts as functional.
Assay [7] is described as follows: The compound was tested for its apoptotic activity; no DNA migration observed. It counts as functional.

With `CC1(C)CC[C@]2(C(=O)O)CC[C@]3(C)C(=CCC4[C@@]5(C)CC[C@H](OC(=O)COCC(=O)O)C(C)(C)C5CC[C@]43C)[C@@H]2C1` (some centres undefined), the IC50 in the assay listed under Homo sapiens [1] amounted to 31.4 µM; with SK-MEL [2], 93 µM. This molecule showed a TI in assay [3] of 2.96.

Consider `CC(=O)O[C@H]1CC[C@@]2(C)C(CC[C@]3(C)C2C(=O)C=C2[C@@H]4CC(C)(C)CC[C@]4(C(=O)O)CC[C@]23C)C1(C)C` (some centres undefined), for which the IC50 result in the assay filed under Homo sapiens [4] and with SK-MEL [5] was “Not Active” throughout. Further, in assay [6], the Apoptotic activity entry was “No DNA migration observed”.

For `CC1(C)CC[C@]2(C(=O)NCCCCCCCCCCC(=O)O)CC[C@]3(C)C(=CCC4[C@@]5(C)CC[C@H](O)C(C)(C)C5CC[C@]43C)[C@@H]2C1` (some centres undefined), the IC50 entry in the assay filed under Homo sapiens [4] and in the assay with SK-MEL [5] was “Not Active” in each case. The Apoptotic activity result in assay [6] was “No DNA migration observed”.

On to `CC1(C)CC[C@]2(C(=O)O)CC[C@]3(C)C(=CC(=O)C4[C@@]5(C)CC[C@H](O)C(C)(C)C5CC[C@]43C)[C@@H]2C1` (some centres undefined), for which the IC50 in the assay filed under Homo sapiens [1] amounted to 234 µM; with SK-MEL [2] it was 131 µM. Further, the TI in assay [3] was 0.56.

As to `CC1(C)CC[C@]2(CO)CC[C@]3(C)C(=CCC4[C@@]5(C)CC[C@H](O)C(C)(C)C5CC[C@]43C)[C@@H]2C1` (some centres undefined), the IC50 result in the assay listed under Homo sapiens [4] was “Not Active”; with SK-MEL [2], 105 µM. Moreover, the Apoptotic activity entry in assay [6] is “No DNA migration observed”.

With `C=C(C)[C@@H]1CC[C@]2(C(=O)O)CC[C@]3(C)[C@H](CC[C@@H]4[C@@]5(C)CC[C@H](O)C(C)(C)[C@@H]5CC[C@]43C)[C@@H]12` [BETULINIC ACID], the values for the IC50 in the assay filed under Homo sapiens [1] and in the assay with SK-MEL [2] were 577 µM and 35 µM, respectively. The same molecule gave a TI in assay [3] of 0.06.

`CC1(C)CC[C@]2(C(=O)NCC(=O)O)CC[C@]3(C)C(=CC[C@@H]4[C@@]5(C)CC[C@H](O)C(C)(C)[C@@H]5CC[C@]43C)[C@@H]2C1`: the values for the half-inhibitory concentration (IC50) in the assay filed under Homo sapiens [1] and in the assay on SK-MEL [2] were 146 µM and 115 µM, respectively. In assay [3], the TI turned out to be 0.78. Moreover, in assay [6], the Apoptotic activity result was “No DNA migration observed”.

On to `CC(=O)O[C@H]1CC[C@@]2(C)C(CC[C@]3(C)C2CC=C2[C@@H]4CC(C)(C)CC[C@]4(C(N)=O)CC[C@]23C)C1(C)C` (some centres undefined), for which the IC50 entry in the assay listed under Homo sapiens [4] is “Not Active”; in the assay on SK-MEL [2], 70 µM. In addition, the Apoptotic activity entry in assay [6] is “No DNA migration observed”.

As for `COC(=O)[C@]12CCC(C)(C)C[C@H]1C1=CC[C@@H]3[C@@]4(C)CC[C@H](O)C(C)(C)[C@@H]4CC[C@@]3(C)[C@]1(C)CC2` [METHYL OLEANOLATE], the IC50 result was “Not Active” in the assay filed under Homo sapiens [4] and 103 µM with SK-MEL [2]. Moreover, the Apoptotic activity result in assay [6] is “No DNA migration observed”.

Turning to `CC1(C)CC[C@]2(C(=O)O)CC[C@]3(C)C(=CC[C@@H]4[C@@]5(C)CC[C@H](O)C(C)(C)[C@@H]5CC[C@]43C)[C@@H]2C1` [OLEANOLIC_ACID], the IC50 stood at 72.3 µM in the assay filed under Homo sapiens [1] and 112 µM in the assay with SK-MEL [2]. Moreover, the TI in assay [3] turned out to be 1.55. In addition, the Apoptotic activity entry in assay [7] was “no DNA migration observed”.

Consider `CC(C)(CC(=O)O)CC(=O)O[C@H]1CC[C@@]2(C)C(CC[C@]3(C)C2CC=C2[C@@H]4CC(C)(C)CC[C@]4(C(=O)O)CC[C@]23C)C1(C)C` (some centres undefined), for which the IC50 worked out at 103 µM in the assay filed under Homo sapiens [1] and 86 µM in the assay on SK-MEL [2]. The molecule also displayed a TI in assay [3] of 0.83.

Consider `CC1(C)CC[C@]2(C(=O)NCCCCC(=O)O)CC[C@]3(C)C(=CCC4[C@@]5(C)CC[C@H](O)C(C)(C)C5CC[C@]43C)[C@@H]2C1` (some centres undefined), for which the results for the IC50 in the assay filed under Homo sapiens [1] and with SK-MEL [2] were 31.8 µM and 127 µM, respectively. In assay [3], this molecule showed a TI of 3.99.

Consider `CC1(C)CC[C@]2(C(=O)O)CC[C@]3(C)C(=CC[C@@H]4[C@@]5(C)CCC(=O)C(C)(C)[C@@H]5CC[C@]43C)[C@@H]2C1` [OLEANONIC ACID], for which the IC50 result was “Not Active” in the assay filed under Homo sapiens [4] and 31 µM in the assay with SK-MEL [2].

Take `CC1(C)CC[C@]2(C(=O)O)CC[C@]3(C)C(=CCC4[C@@]5(C)CC[C@H](OC(=O)CC(C)(C)C(=O)O)C(C)(C)C5CC[C@]43C)[C@@H]2C1` (some centres undefined): the IC50 in the assay listed under Homo sapiens [1] was 108 µM; with SK-MEL [2], 77 µM. This molecule gave a TI in assay [3] of 0.71.

For the molecule `CC1(C)CC[C@]2(C(N)=O)CC[C@]3(C)C(=CCC4[C@@]5(C)CC[C@H](O)C(C)(C)C5CC[C@]43C)[C@@H]2C1` (some centres undefined), the IC50 entry in the assay listed under Homo sapiens [4] and with SK-MEL [5] was “Not Active” each time. Further, the Apoptotic activity entry in assay [6] is “No DNA migration observed”.

As to `CC(=O)O[C@H]1CC[C@]2(C)[C@H]3CC=C4[C@@H]5CC(C)(C)CC[C@]5(C(=O)O)CC[C@@]4(C)[C@]3(C)CC[C@H]2C1(C)C` [ACETYL OLEANOLIC ACID], the IC50 entry in the assay filed under Homo sapiens [4] and in the assay on SK-MEL [5] was “Not Active” in each case. For the same molecule, the Apoptotic activity entry in assay [7] is “no DNA migration observed”.
